Assay results: PubChem BioAssay (NCI)
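Exposure lasted 48 hours, with cells grown in 96-well plates and compounds tested at five concentrations. TGI: total growth inhibition.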 Where a SMILES comes first, the peptide text is derived from it. [ ]: non-standard residue; d: D form. The star is where a group is joined. X28 = COC1=CC(=O)N(C(=O)[C@@H](O*)C(C)C)[C@H]1Cc1ccccc1; Bn2Val = CC(C)[C@@H](C(=O)*)N(Cc1ccccc1)Cc1ccccc1; NMeV = CN[C@H](C(=O)O)C(C)C; dNMeA = CN[C@H](C)C(=O)O

Columns and labels:
Assay in all cases: growth of human tumour cells (NCI), 48 h
SK-MEL-5 melanoma = test system: SK-MEL-5 melanoma
SK-MEL-2 melanoma = test system: SK-MEL-2 melanoma
SW-620 colon = test system: SW-620 colon
M14 melanoma = test system: M14 melanoma
SF-295 CNS = test system: SF-295 CNS
SNB-75 CNS = test system: SNB-75 CNS
OVCAR-4 ovarian = test system: OVCAR-4 ovarian
SK-OV-3 ovarian = test system: SK-OV-3 ovarian
SNB-19 CNS = test system: SNB-19 CNS
OVCAR-3 ovarian = test system: OVCAR-3 ovarian

Row | SMILES | TGI (SK-MEL-5 melanoma) [µM] | TGI (SK-MEL-2 melanoma) [µM] | TGI (SW-620 colon) [µM] | TGI (M14 melanoma) [µM] | TGI (SF-295 CNS) [µM] | TGI (SNB-75 CNS) [µM] | TGI (OVCAR-4 ovarian) [µM] | TGI (SK-OV-3 ovarian) [µM] | TGI (SNB-19 CNS) [µM] | TGI (OVCAR-3 ovarian) [µM]
1 | CC(C(=O)NCCNC(=O)CCC(=O)N(C)O)C(=O)NCCNC(=O)CCC(=O)N(C)O | > 100 | > 100 | > 100 | > 100 | > 100 | > 100 | > 100 | > 100 | > 100 | > 100
2 | CC(=O)OC12CC(C(F)(F)F)(C(F)(F)F)OC1(OC(C)=O)CC(C(F)(F)F)(C(F)(F)F)O2 (stereo not given) | 5.81 | > 100 | > 100 | > 100 | > 100 | > 100 | > 100 | 79.8 | > 100 | > 100
3 | Nc1nc2c(c(-c3ccccc3Cl)n1)COC/C2=C\c1ccccc1Cl | 31.7 | 31 | 31.8 | 29.6 | 27.7 | 35.3 | 39 | 30 | 29.8 | 31.2
4 | Cc1c(-c2coc(-c3ccccc3)n2)c(=O)n(-c2ccccc2)n1C | 61 | > 100 | > 100 | > 100 | > 100 | > 100 | > 100 | > 100 | > 100 | > 100
5 | c1ccc(C(c2cccc3c2ccc2ccccc23)C(c2ccccc2)c2cccc3c2ccc2ccccc23)cc1 (stereo not given) | > 100 | > 100 | > 100 | > 100 | > 100 | > 100 | > 100 | > 100 | > 100 | > 100
6 | Nc1ncnc2c1ncn2C1OC(CO)C(O)C1NS(=O)(=O)c1ccccc1 (stereo not given) | > 100 | > 100 | > 100 | > 100 | > 100 | > 100 | > 100 | > 100 | > 100 | > 100
7 | CC(C)(C)c1cc(C(=O)C2Cc3ccccc3C(=O)O2)cc(C(C)(C)C)c1O (stereo not given) | 25.1 | 23.9 | 50.4 | 25.6 | 35.1 | 33.8 | 65.7 | 56.3 | 24.7 | 25.5
8 | CC(=O)NNc1nc(C)c(C(/C=C/c2ccc([N+](=O)[O-])cc2)=N/NC(N)=O)s1 | > 100 | > 100 | > 100 | > 100 | > 100 | > 100 | > 100 | > 100 | > 100 | > 100
9 | NC(=S)Nc1ccc2c(c1)oc1ccccc12 | > 100 | > 100 | > 100 | > 100 | > 100 | > 100 | > 100 | > 100 | > 100 | > 100
10 | COCCOC(C)C(=O)C(O)S(=O)(=O)O (stereo not given) | > 100 | > 100 | > 100 | > 100 | > 100 | > 100 | > 100 | > 100 | > 100 | > 100
11 | O=C(NC12CC3CC(CC(C3)C1)C2)C(=O)c1c[nH]c2ccc(Br)cc12 | > 100 | > 100 | > 100 | 31.4 | 19.8 | 28.2 | 35.5 | 60.8 | 95.6 | 38.6
12 | C=CC(C)(C)C1(CC(OC)OC)C(=O)N(C)c2ccccc21 (stereo not given) | > 25 | > 25 | > 25 | > 25 | > 25 | > 25 | > 25 | > 25 | > 25 | > 25
13 | CCCCC(=C=C(C)CO)C1CCCN1C(=O)OC(C)(C)C (stereo not given) | 29.8 | 30.6 | 89.8 | 35.4 | 31.7 | 53.4 | 39.3 | 67.4 | 60.2 | 31.8
14 | COC1=CC(=O)N(C(=O)[C@@H](OC(=O)[C@@H](C)N(C)C(=O)[C@@H]2CCCN2C(=O)[C@H](C(C)C)N(C)C(=O)[C@@H](NC(=O)[C@H](C(C)C)N(Cc2ccccc2)Cc2ccccc2)C(C)C)C(C)C)[C@H]1Cc1ccccc1 (Bn2Val-V[NMeV]P[dNMeA]-X28) | > 100 | > 100 | > 100 | > 100 | > 100 | > 54.8 | > 100 | > 100 | > 100 | > 100
15 | CCCCOc1c(C(=O)O)cc(Br)cc1C(=O)O | > 100 | > 100 | > 100 | > 100 | > 100 | > 100 | > 100 | > 100 | > 100 | > 100
16 | N/C(=N\S(=O)(=O)c1ccc(-c2ccccn2)s1)Nc1ccc(Cl)cc1 | 30.6 | 27.4 | 45.1 | 33.6 | 40.3 | 45.7 | 37.7 | 47.9 | 31.5 | 67.6
